Earlier results on 2 molecules are cited in article PMC12315921 (Translational Vision Science & Technology, 2025).

Each structure is given as a SMILES string. Read-outs that look alike come from different tables or passages of the source.

For series [1], the system named is PKM2.
Series [2] relates to PKM2. This is another data set of the same source.

`Nc1cccc(S(=O)(=O)N2CCCN(S(=O)(=O)c3ccc4c(c3)OCCO4)CC2)c1` [DASA-58]: the entries for the “AC50 of PK activation” value in series [1] (in the absence of FBP) and in series [1] (in the presence of FBP) were “micromolar” and “low nanomolar”, respectively.

`O=C(COP(=O)(O)O)[C@@H](O)[C@H](O)[C@H](O)COP(=O)(O)O` [FBP, fructose 1,6-biphosphate]: in series [2], the AC50 result is on record as “nanomolar range” and the Kd result is given as “nanomolar range”.
